Laboratory results published in patent US20240027453A1, “METHOD FOR DETECTION AND QUANTITATIVE MONITORING OF INFECTIONS WITH HERPESVIRUSES” (The Trustees of Princeton University, priority 2020, published 2024).
Where two headings read alike, the source gives them in different places.

System: HCMV
Assay type: cell-based
Conditions: FIG. 7A
Summary of the method: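 MRC5 human fibroblasts treated with compound or DMSO/PBS 12 h before infection with HSV-1 17+ or HCMV AD169 at MOI 3, drug re-added every 24 h. Viral proteins quantified by targeted PRM LC-MS/MS of tryptic peptides, summed 3-4 transitions, normalized to host loading-control peptides and scaled to each peptide's average across runs.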
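Wherever UL32 (P08318) protein level is given: each peptide scaled to its average across all runs.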
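Wherever UL38 (P16779) protein level is given: each peptide scaled to its average across all runs.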
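Wherever UL78 (P16751) protein level is given: each peptide scaled to its average across all runs.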
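Wherever UL95 (P16801) protein level is given: each peptide scaled to its average across all runs.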

Oc1ccc(C=Cc2cc(O)cc(O)c2)cc1 [Resveratrol]
CVC2 (P16726) protein level (timepoint 24, DE): 0.02416
DBP (P17147) protein level (timepoint 24, DE): 0.2603
HELI (P16736) protein level (timepoint 24, DE): 0.5239
IR01 (P09710) protein level (timepoint 24, DE): 0.2395
NEC2 (P16791) protein level (timepoint 24, DE): 0.05031
TRM1 (P16724) protein level (timepoint 24, DE): 0.0496
UL4 (P17146) protein level (timepoint 24, DE): 0.02792
UL26 (P16762) protein level (timepoint 24, DE): 0.08745
UL32 (P08318) protein level (timepoint 24, DE): 0.02724
UL34 (P16812) protein level (timepoint 24, DE): 0.1096
UL38 (P16779) protein level (timepoint 24, DE): 0.9691
UL44 (P16790) protein level (timepoint 24, DE): 0.0591
UL48 (P16785) protein level (timepoint 24, DE): 0.02194
UL54 (P08546) protein level (timepoint 24, DE): 0.6295
UL71 (P16823) protein level (timepoint 24, DE): 0.5252
UL78 (P16751) protein level (timepoint 24, DE): 1.896
UL84 (P16727) protein level (timepoint 24, DE): 0.1406
UL95 (P16801) protein level (timepoint 24, DE): 0.06756
UL96 (P16787) protein level (timepoint 24, DE): 0.4727
UL97 (P16788) protein level (timepoint 24, DE): 0.3652
UL98 (P16789) protein level (timepoint 24, DE): 0.2979
UL102 (P16827) protein level (timepoint 24, DE): 0.889
UL104 (P16735) protein level (timepoint 24, DE): 0.07335
UL112/UL113 (P17151) protein level (timepoint 24, DE): 0.3601
UL114 (P16769) protein level (timepoint 24, DE): 0.8008
UL119/UL118 (P16739) protein level (timepoint 24, DE): 0.5596
UL128 (P16837) protein level (timepoint 24, DE): 0.08035
US8 (P09730) protein level (timepoint 24, DE): 0.9856
US9 (P09729) protein level (timepoint 24, DE): 1.12
US12 (P09721) protein level (timepoint 24, DE): 1.673
US13 (P09720) protein level (timepoint 24, DE): 0.5476
US14 (P09719) protein level (timepoint 24, DE): 0.3883
US22 (P09722) protein level (timepoint 24, DE): 0.3379
US23 (P09701) protein level (timepoint 24, DE): 1.209
US24 (P09700) protein level (timepoint 24, DE): 1.019
US34 (P09709) protein level (timepoint 24, DE): 2.475
gB (P06473) protein level (timepoint 24, DE): 0.2035
IRS1 (P09715) protein level (timepoint 24, IE): 0.53
TRS1 (P09695) protein level (timepoint 24, IE): 0.2907
UL13 (P16755) protein level (timepoint 24, IE): 2.216
UL36 (P16767) protein level (timepoint 24, IE): 1.36
UL37 (P16778) protein level (timepoint 24, IE): 0.9797
UL122 (P19893) protein level (timepoint 24, IE): 0.06584
UL123 (P13202) protein level (timepoint 24, IE): 1.053
CVC1 (P16799) protein level (timepoint 24, L): 0.1335
IR11 (P16809) protein level (timepoint 24, L): 0.4092
MCP (P16729) protein level (timepoint 24, L): 0.005554
TRM2 (P16792) protein level (timepoint 24, L): 0.01236
UL22A (P16845) protein level (timepoint 24, L): 0.06878
UL25 (P16761) protein level (timepoint 24, L): 0.02173
UL29 (P16764) protein level (timepoint 24, L): 0.6989
UL31 (P16848) protein level (timepoint 24, L): 0.4434
UL43 (P16781) protein level (timepoint 24, L): 0.0621
UL52 (P16793) protein level (timepoint 24, L): 0.02488
UL80 (P16753) protein level (timepoint 24, L): 0.03642
UL82 (P06726) protein level (timepoint 24, L): 0.2024
UL88 (P16731) protein level (timepoint 24, L): 0.05174
UL94 (P16800) protein level (timepoint 24, L): 0.1027
UL99 (P13200) protein level (timepoint 24, L): 0.04805
UL103 (P16734) protein level (timepoint 24, L): 0.3861
UL117 (P16770) protein level (timepoint 24, L): 0.7439
gH (P12824) protein level (timepoint 24, L): 0.08651
gL (P16832) protein level (timepoint 24, L): 0.03756
gM (P16733) protein level (timepoint 24, L): 0.04047
gN (P16795) protein level (timepoint 24, L): 0.1854
DUT (P16824) protein level (timepoint 24, LL): 0.3815
IR12 (P16810) protein level (timepoint 24, LL): 0.1305
TRX1 (P16783) protein level (timepoint 24, LL): 0.007402
TRX2 (P16728) protein level (timepoint 24, LL): 0.006335
UL24 (P16760) protein level (timepoint 24, LL): 0.115
UL40 (P16780) protein level (timepoint 24, LL): 0.6816
UL47 (P16784) protein level (timepoint 24, LL): 0.01314
UL49 (P16786) protein level (timepoint 24, LL): 0.3801
UL69 (P16749) protein level (timepoint 24, LL): 0.259
UL70 (P17149) protein level (timepoint 24, LL): 0.2151
UL83 (P06725) protein level (timepoint 24, LL): 0.04868
UL132 (P69338) protein level (timepoint 24, LL): 0.1519
US15 (P09718) protein level (timepoint 24, LL): 2.089
CVC2 (P16726) protein level (timepoint 48, DE): 0.04895
DBP (P17147) protein level (timepoint 48, DE): 0.3174
HELI (P16736) protein level (timepoint 48, DE): 0.7035
IR01 (P09710) protein level (timepoint 48, DE): 0.3325
NEC2 (P16791) protein level (timepoint 48, DE): 0.1347
RIR1 (P16782) protein level (timepoint 48, DE): 0.1467
TRM1 (P16724) protein level (timepoint 48, DE): 0.1744
UL4 (P17146) protein level (timepoint 48, DE): 0.1071
UL26 (P16762) protein level (timepoint 48, DE): 0.09224
UL32 (P08318) protein level (timepoint 48, DE): 0.06407
UL34 (P16812) protein level (timepoint 48, DE): 0.1265
UL35 (P16766) protein level (timepoint 48, DE): 0.02653
UL38 (P16779) protein level (timepoint 48, DE): 0.8069
UL44 (P16790) protein level (timepoint 48, DE): 0.09657
UL48 (P16785) protein level (timepoint 48, DE): 0.05393
UL54 (P08546) protein level (timepoint 48, DE): 0.9464
UL71 (P16823) protein level (timepoint 48, DE): 0.3661
UL78 (P16751) protein level (timepoint 48, DE): 1.07
UL84 (P16727) protein level (timepoint 48, DE): 0.1489
UL95 (P16801) protein level (timepoint 48, DE): 0.2914
UL96 (P16787) protein level (timepoint 48, DE): 0.3861
UL97 (P16788) protein level (timepoint 48, DE): 0.3732
UL98 (P16789) protein level (timepoint 48, DE): 0.3412
UL102 (P16827) protein level (timepoint 48, DE): 1.27
UL104 (P16735) protein level (timepoint 48, DE): 0.1091
UL112/UL113 (P17151) protein level (timepoint 48, DE): 0.4545
UL114 (P16769) protein level (timepoint 48, DE): 1.322
UL119/UL118 (P16739) protein level (timepoint 48, DE): 0.6367
UL128 (P16837) protein level (timepoint 48, DE): 0.03596
US8 (P09730) protein level (timepoint 48, DE): 1.343
US9 (P09729) protein level (timepoint 48, DE): 2.242
US12 (P09721) protein level (timepoint 48, DE): 0.8964
US13 (P09720) protein level (timepoint 48, DE): 0.5923
US14 (P09719) protein level (timepoint 48, DE): 0.2304
US22 (P09722) protein level (timepoint 48, DE): 0.5371
US23 (P09701) protein level (timepoint 48, DE): 0.5982
US24 (P09700) protein level (timepoint 48, DE): 0.4857
US34 (P09709) protein level (timepoint 48, DE): 2.409
gB (P06473) protein level (timepoint 48, DE): 0.1991
IRS1 (P09715) protein level (timepoint 48, IE): 0.8671
TRS1 (P09695) protein level (timepoint 48, IE): 0.7123
UL13 (P16755) protein level (timepoint 48, IE): 0.6646
UL36 (P16767) protein level (timepoint 48, IE): 1.045
UL37 (P16778) protein level (timepoint 48, IE): 1.143
